Measurements published in PubChem BioAssay AID330 (DTP/NCI, 2004).
“And” between values parts separate entries of the source, which are not always exact repeats. Equal values may be shown once. Inconclusive results and toxic doses are left out.

System: P388 leukemia ip, CD2F1 mice, survival T/C
Assay: NCI In Vivo Anticancer Drug Screen. Data for tumor model P388 Leukemia (intraperitoneal) in CD2F1 (CDF1) mice
Settings: endpoint: median survival time, higher = longer survival
How it was run: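 Mice carrying the transplanted tumor received test compound or vehicle. Survival was recorded in each group, and the value is the treated-group measurement divided by that of the vehicle-treated control group.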

[1] = dose: 12.5 mg/kg/injection, schedule: Q01DX009 (ip), vehicle: saline with Tween-80
[2] = dose: 25.0 mg/kg/injection, schedule: Q01DX009 (ip), vehicle: saline with Tween-80
[3] = dose: 50.0 mg/kg/injection, schedule: Q01DX009 (ip), vehicle: saline with Tween-80
[4] = dose: 6.25 mg/kg/injection, schedule: Q01DX009 (ip), vehicle: saline with Tween-80
[5] = dose: 50.0 mg/kg/injection, schedule: Q01DX005 (ip), vehicle: saline with Tween-80
[6] = dose: 100.0 mg/kg/injection, schedule: Q01DX005 (ip), vehicle: saline with Tween-80
[7] = dose: 200.0 mg/kg/injection, schedule: Q01DX005 (ip), vehicle: saline with Tween-80

Cc1cc(N(C)C)nc2cc(N(C)C)ccc12
T/C [1]: 93 % of control
T/C [2]: 103 % of control
T/C [3]: 95 % of control and 98 % of control

CN(C)C(=O)c1cc(N2CC2)c([N+](=O)[O-])cc1[N+](=O)[O-]
T/C (dose: 1.56 mg/kg/injection, schedule: Q01DX009 (ip), vehicle: saline with Tween-80): 98 % of control and 117 % of control
T/C (dose: 3.12 mg/kg/injection, schedule: Q01DX009 (ip), vehicle: saline with Tween-80): 115 % of control
T/C [4]: 100 % of control and 101 % of control and 113 % of control
T/C [2]: 110 % of control

CN(C)C1C(=O)C(C(=O)NCN2CCCC2)=C(O)C2(O)C(=O)C3=C(O)c4c(O)cccc4C(C)(O)C3CC12 (centres undefined)
T/C [5]: 96 % of control
T/C [6]: 95 % of control
T/C [7]: 97 % of control

CC(=O)OC1C(OC(C)=O)C2C(C)CC3OC(=O)C(C)C3CC2(C)C1OC(C)=O (centres undefined)
T/C (dose: 6.25 mg/kg/injection, schedule: Q01DX009 (ip), vehicle: saline): 110 % of control
T/C (dose: 12.5 mg/kg/injection, schedule: Q01DX009 (ip), vehicle: saline): 103 % of control
T/C [2]: 100 % of control (2×) and 123 % of control
T/C (dose: 25.0 mg/kg/injection, schedule: Q01DX009 (ip), vehicle: saline): 113 % of control
T/C [3]: 100 % of control and 121 % of control and 97 % of control
T/C (dose: 100.0 mg/kg/injection, schedule: Q01DX009 (ip), vehicle: saline with Tween-80): 103 % of control and 104 % of control and 93 % of control
T/C (dose: 200.0 mg/kg/injection, schedule: Q01DX009 (ip), vehicle: saline with Tween-80): 96 % of control
T/C (dose: 400.0 mg/kg/injection, schedule: Q01DX009 (ip), vehicle: saline with Tween-80): 96 % of control

CC1(C)N=C(N)N=C(N)N1c1ccc(CCCCc2cccc(S(=O)(=O)F)c2)c(Cl)c1
T/C (dose: 0.11 mg/kg/injection, schedule: Q01DX009 (ip), vehicle: saline with Tween-80): 107 % of control
T/C (dose: 0.17 mg/kg/injection, schedule: Q01DX009 (ip), vehicle: saline with Tween-80): 111 % of control
T/C (dose: 0.25 mg/kg/injection, schedule: Q01DX009 (ip), vehicle: saline with Tween-80): 115 % of control
T/C (dose: 0.66 mg/kg/injection, schedule: Q01DX009 (ip), vehicle: saline with Tween-80): 107 % of control
T/C (dose: 1.0 mg/kg/injection, schedule: Q01DX009 (ip), vehicle: saline with Tween-80): 109 % of control
T/C (dose: 3.3 mg/kg/injection, schedule: Q01DX009 (ip), vehicle: saline with Tween-80): 160 % of control
T/C (dose: 5.0 mg/kg/injection, schedule: Q01DX009 (ip), vehicle: saline with Tween-80): 150 % of control
T/C [4]: 150 % of control
T/C (dose: 7.5 mg/kg/injection, schedule: Q01DX009 (ip), vehicle: saline with Tween-80): 155 % of control
T/C (dose: 8.0 mg/kg/injection, schedule: Q01DX009 (ip), vehicle: saline with Tween-80): 154 % of control
T/C (dose: 8.0 mg/kg/injection, schedule: Q01DX009 (ip), vehicle: saline): 157 % of control
T/C (dose: 12.0 mg/kg/injection, schedule: Q01DX009 (ip), vehicle: saline with Tween-80): 163 % of control
T/C (dose: 12.0 mg/kg/injection, schedule: Q01DX009 (ip), vehicle: saline): 154 % of control
T/C [1]: 150 % of control
T/C (dose: 18.0 mg/kg/injection, schedule: Q01DX009 (ip), vehicle: saline with Tween-80): 150 % of control
T/C (dose: 18.0 mg/kg/injection, schedule: Q01DX009 (ip), vehicle: saline): 181 % of control
T/C [2]: 95 % of control
T/C (dose: 27.0 mg/kg/injection, schedule: Q01DX009 (ip), vehicle: saline with Tween-80): 150 % of control

CC(=O)C(=Cc1c(N(C)c2ccccc2)nn2ccccc12)C(C)=O
T/C (dose: 100.0 mg/kg/injection, schedule: Q01DX001 (ip), vehicle: saline with Tween-80): 100 % of control
T/C (dose: 200.0 mg/kg/injection, schedule: Q01DX001 (ip), vehicle: saline with Tween-80): 100 % of control
T/C (dose: 400.0 mg/kg/injection, schedule: Q01DX001 (ip), vehicle: saline with Tween-80): 100 % of control

Cc1ccccc1C(=O)Nc1ccccc1-c1ccccc1
T/C [1]: 94 % of control
T/C [2]: 100 % of control
T/C [3]: 106 % of control
T/C (dose: 50.0 mg/kg/injection, schedule: Q01DX009 (ip), vehicle: saline): 95 % of control
T/C (dose: 200.0 mg/kg/injection, schedule: Q01DX009 (ip), vehicle: saline): 93 % of control

O=c1c2cc3c(=O)n(CC[P+](c4ccccc4)(c4ccccc4)c4ccccc4)c(=O)c3cc2c(=O)n1CC[P+](c1ccccc1)(c1ccccc1)c1ccccc1
T/C (dose: 0.78 mg/kg/injection, schedule: Q01DX009 (ip), vehicle: water): 99 % of control
T/C (dose: 1.56 mg/kg/injection, schedule: Q01DX009 (ip), vehicle: water): 97 % of control
T/C (dose: 3.13 mg/kg/injection, schedule: Q01DX009 (ip), vehicle: water): 93 % of control

NC(C(=O)O)c1cc(=O)[nH]o1 (centres undefined)
T/C (dose: 2.5 mg/kg/injection, schedule: Q01DX009 (ip), vehicle: Klucel (hydroxypropylcellulose) (HPC)): 98 % of control
T/C (dose: 5.0 mg/kg/injection, schedule: Q01DX009 (ip), vehicle: Klucel (hydroxypropylcellulose) (HPC)): 93 % of control
T/C (dose: 10.0 mg/kg/injection, schedule: Q01DX009 (ip), vehicle: Klucel (hydroxypropylcellulose) (HPC)): 101 % of control

CN=C(c1ccc(NC(=O)c2cc(N)cc(C(=O)Nc3ccc(C(=NC)N(C)C)cc3)c2)cc1)N(C)C
T/C (dose: 6.25 mg/kg/injection, schedule: Q01DX005 (ip), vehicle: Klucel (hydroxypropylcellulose) (HPC)): 104 % of control
T/C (dose: 12.5 mg/kg/injection, schedule: Q01DX005 (ip), vehicle: Klucel (hydroxypropylcellulose) (HPC)): 104 % of control

O=C(NC1(C(=O)O)CC1c1ccccc1)c1ccccc1 (centres undefined)
T/C (dose: 60.0 mg/kg/injection, schedule: Q01DX005 (ip), vehicle: Klucel (hydroxypropylcellulose) (HPC)): 100 % of control
T/C (dose: 120.0 mg/kg/injection, schedule: Q01DX005 (ip), vehicle: Klucel (hydroxypropylcellulose) (HPC)): 94 % of control
T/C (dose: 240.0 mg/kg/injection, schedule: Q01DX005 (ip), vehicle: Klucel (hydroxypropylcellulose) (HPC)): 100 % of control

CCn1ncc(N=O)c1N
T/C (dose: 60.0 mg/kg/injection, schedule: Q01DX005 (ip), vehicle: saline): 104 % of control and 100 % of control
T/C (dose: 120.0 mg/kg/injection, schedule: Q01DX005 (ip), vehicle: saline): 92 % of control and 104 % of control
T/C (dose: 240.0 mg/kg/injection, schedule: Q01DX005 (ip), vehicle: saline): 90 % of control and 108 % of control

O=[N+]([O-])c1ccc(-c2c[s+]cs2)cc1
T/C (dose: 6.25 mg/kg/injection, schedule: Q01DX009 (ip), vehicle: distilled water + Tween-80): 101 % of control
T/C (dose: 12.5 mg/kg/injection, schedule: Q01DX009 (ip), vehicle: distilled water + Tween-80): 101 % of control
T/C (dose: 25.0 mg/kg/injection, schedule: Q01DX009 (ip), vehicle: distilled water + Tween-80): 108 % of control
T/C (dose: 50.0 mg/kg/injection, schedule: Q01DX009 (ip), vehicle: distilled water + Tween-80): 95 % of control
T/C (dose: 100.0 mg/kg/injection, schedule: Q01DX009 (ip), vehicle: distilled water + Tween-80): 104 % of control

CC(=O)Oc1cc2c(cc1OC(C)=O)OCC(c1ccccc1)C2 (centres undefined)
T/C (dose: 60.0 mg/kg/injection, schedule: Q01DX005 (ip), vehicle: saline with Tween-80): 98 % of control
T/C (dose: 120.0 mg/kg/injection, schedule: Q01DX005 (ip), vehicle: saline with Tween-80): 98 % of control
T/C (dose: 240.0 mg/kg/injection, schedule: Q01DX005 (ip), vehicle: saline with Tween-80): 97 % of control

COC(=O)CC1(C(=O)OC)C2=C(c3ccccc3CC2)N2CCCC21 (centres undefined)
T/C (dose: 11.25 mg/kg/injection, schedule: Q01DX009 (ip), vehicle: Klucel (hydroxypropylcellulose) (HPC)): 110 % of control
T/C (dose: 22.5 mg/kg/injection, schedule: Q01DX009 (ip), vehicle: Klucel (hydroxypropylcellulose) (HPC)): 110 % of control
T/C (dose: 45.0 mg/kg/injection, schedule: Q01DX009 (ip), vehicle: Klucel (hydroxypropylcellulose) (HPC)): 102 % of control
T/C (dose: 90.0 mg/kg/injection, schedule: Q01DX009 (ip), vehicle: Klucel (hydroxypropylcellulose) (HPC)): 112 % of control

ClB1NB(Cl)NB(Cl)N1
T/C (dose: 100.0 mg/kg/injection, schedule: Q01DX009 (ip), vehicle: Klucel (hydroxypropylcellulose) (HPC)): 108 % of control and 93 % of control
T/C (dose: 200.0 mg/kg/injection, schedule: Q01DX009 (ip), vehicle: Klucel (hydroxypropylcellulose) (HPC)): 108 % of control and 86 % of control
T/C (dose: 400.0 mg/kg/injection, schedule: Q01DX009 (ip), vehicle: Klucel (hydroxypropylcellulose) (HPC)): 109 % of control and 95 % of control

c1ccc2c(-c3ccncc3)c3c(ccc4ccccc43)cc2c1
T/C [5]: 100 % of control
T/C [6]: 98 % of control
T/C [7]: 89 % of control

CCCCCC1(C2CCCCO2)NC(=O)NC1=O (centres undefined)
T/C [5]: 97 % of control
T/C [6]: 99 % of control
T/C [7]: 91 % of control
